Our source for the melting point values is a melting point compilation (Tetko et al.; mined from patent text by program, amines drawn as free bases though some values may be those of a salt).

Some results are limits rather than exact numbers.

For `Cc1nccc(N2CCC(C(=O)N3CCN(S(=O)(=O)c4ccc(Br)cc4)CC3)CC2)n1`, the melting point – broadly, the temperature of the solid-liquid transition – was in the range of 200 to 202 °C.

Take `COc1ccc(-c2[nH]cnc2-c2cc(OC)c(Br)c(OC)c2)cc1N`: the melting point was 160 to 162 °C.

The molecule `O=C1c2ccc(NC(=O)C3CC3)cc2C(=O)c2cc(NC(=O)C3CC3)ccc21` yielded a melting point of 352 °C.

`O=CC=C[C@@H]1O[C@H]1C#CC#CC#Cc1ccccc1` (relative stereo) showed a melting point of 91 to 92.5 °C.

`CC(O)(c1cccc(Cl)c1)c1cc(Cl)ccc1O` (centres undefined) yielded a melting point of 125 °C.

Take `Cc1c(OC(=O)C(C)(C)C)c(=O)ccn1C`: the melting point was 112 to 113 °C.

`O=C(COc1ccc(Cl)cc1)CS(=O)(=O)C(c1ccc(Cl)cc1)c1ccc(Cl)cc1` returned a melting point of 105 to 107 °C.

Turning to `CCOCc1nc2c(N)nc3cccnc3c2n1CCCCN(OC)C(=O)NC(C)C`, the melting point lay in the range of 146 to 147 °C.

Regarding `CN(CCc1ccccc1)C(=O)Cn1cc(C(=O)O)c2cc(OCc3ccccc3)ccc21`, the melting point was 182 to 185 °C.

`NC(CO)(CO)CCc1ccc(C(=O)CCCCCCc2ccccc2)cc1` displayed a melting point of 121 to 122 °C.

For the molecule `Cc1ccc(C)c(NC(=O)CN2C(=O)C3(COc4cc5c(cc43)CCO5)c3ccccc32)c1` (centres undefined), the melting point fell in the range of 250 to 252 °C.

`O=C1CCC(N2Cc3c(OCc4ccc(CN5CCC(O)(c6ccccc6)CC5)cc4)cccc3C2=O)C(=O)N1` (centres undefined): the melting point lay in the range of 140 to 142 °C.

Turning to `CC(=O)Oc1ccc(S(=O)(=O)ON=C2CCCc3ccccc32)cc1`, the melting point was in the range of 151 to 152 °C.

Take `CCC(=O)c1c(O)cccc1O`: the melting point was 135 to 136 °C.

As to `c1ccc2c(c1)CCC(n1cncn1)C21OCCO1` (centres undefined), the melting point turned out to be 108 °C.

As for `CCn1c(=O)c2[nH]c(/C=C/c3ccc(C(F)(F)F)cc3)nc2n(CC)c1=O`, the melting point is over 280 °C.

With `CC(C)Oc1ccn2nc(-c3ccccc3)c(-c3ccc(=O)n(C(C)C)n3)c2c1`, the melting point fell in the range of 162 to 163 °C.

For `CC(=O)N1c2ccc(-c3ccc(-c4nnn[nH]4)cc3)cc2C(Nc2ccc(Cl)cc2)CC1C` (centres undefined), the melting point was found to be 250 °C.

As to `O=C(O)COC1CCN(C(=O)CN2CCN(c3ccncc3)CC2)CC1`, the melting point was 198 to 200 °C.

For the molecule `COc1ccc([C@@H]2CCCC[C@@H]2N)cc1OC`, the melting point was in the range of 80 to 81.5 °C.

For the molecule `Cn1c(=O)[nH]c2ccc(-c3cccc(Cl)c3)cc21`, the melting point fell in the range of 219 to 220 °C.

The molecule `C#Cc1cccc(N2C(=O)c3ccc([N+](=O)[O-])cc3C2=O)c1` gave a melting point of 257 to 259 °C.

For `CC(C)(C)OC[C@@H]1NCCN(CC(=O)O)C1=O`, the melting point lay within 178 to 180 °C.

Regarding `Cc1nc2c(OCc3ccccc3Cl)nccc2n1C`, the melting point lay within 180 to 181 °C.

`CNS(=O)(=O)c1ccccc1Nc1nc(Nc2ccc3c(c2)CCCC(=O)N3CC(=O)O)ncc1Cl` returned a melting point of 192 to 195 °C.

Consider `N#Cc1coc2c(Cl)cc(Cl)cc2c1=O`, for which the melting point was 150 °C.

For the molecule `COC(=O)C1CN2c3c(cc(F)c(OS(C)(=O)=O)c3CCN2C)C1=O` (centres undefined), the melting point lay within 247 to 250 °C.

`COc1ccc(C2=NCc3nncn3-c3ccc(Cl)cc32)cc1` registered a melting point of 216 to 217 °C.

As for `CCOC(=O)CCN(CCCCCCN(CCC(=O)OCC)C1CC(C)(C)NC(C)(C)C1)C1CC(C)(C)NC(C)(C)C1`, the melting point lay within 58 to 60 °C.

`CCCC1=C(C#N)C(c2ccccc2Cl)c2c(n[nH]c2C2CCCCC2)N1` (centres undefined) yielded a melting point of over 270 °C.

The molecule `OC(CCc1ccc2ccccc2c1)Cn1ccnc1` (centres undefined) displayed a melting point of 122 to 124 °C.

The molecule `N#Cc1ccc(-c2nccc3[nH]c(=O)ccc23)cc1` yielded a melting point of over 300 °C.

In the case of `CC(C)(C)c1cc(Nc2ccccc2C#N)cc(C(C)(C)C)c1O`, the melting point amounted to 172 °C.

In turn, `Cc1ccc2c(Cl)cc(S(=O)(=O)F)c(O)c2n1` displayed a melting point of 196 to 198 °C.

In the case of `COc1ccc(S(N)(=O)=O)cc1C(=O)NC1CCN(C2CCCCC2)C1` (centres undefined), the melting point lay within 184 to 187 °C.

Turning to `O=C1Nc2cccnc2N(C(=O)NCCN2CCC(CCCN3CCCCC3)CC2)c2cc(Cl)ccc21`, the melting point lay in the range of 176 to 177 °C.

The molecule `OCC(O)CNc1nc(-c2ccc(Cl)c(Cl)c2)nc2ccccc12` (centres undefined) gave a melting point of 162 to 164 °C.

Molecule `O=C1C(=O)N(C2CCCCC2)C(=O)N1c1ccccc1` gave a melting point of 133 to 140 °C.

As for `N[C@H]1CC[C@@H](Oc2ccc3[nH]ncc3c2)CC1`, the melting point lay in the range of 144 to 146 °C.

`CON=C(c1ccccc1COc1cccc(Cl)c1)n1ccnc1` displayed a melting point of 96.5 to 97.5 °C.

Regarding `CNC(=NCCSCc1ncccc1OC)NC#N`, the melting point was 122 to 123 °C.

Molecule `NS(=O)(=O)c1cc(C(=O)O)cc([N+](=O)[O-])c1Oc1ccc(OCc2ccccc2)cc1` returned a melting point of 247 °C.

Take `CCOC(=O)CCC(Oc1cc(OCc2ccsc2)ccc1C(N)=S)c1ccccc1C` (racemic): the melting point fell in the range of 134 to 135 °C.

Regarding `COc1ccc(C(=Cc2nnnn2C)c2ccc(OC)cc2)cc1`, the melting point was 146 to 147 °C.

Regarding `O=C(c1ccccc1)N1CC2COCC2C1` (centres undefined), the melting point lay in the range of 47 to 48 °C.

Molecule `CC1(C)CC(=O)C2=C(C1)NC1=C(C(=O)CC(C)(C)C1)C2c1cccc(Oc2ccc(Cl)cc2)c1` returned a melting point of 238 to 239 °C.

With `Cc1ccc(C(=O)Cl)cc1OCc1ccccc1`, the melting point fell in the range of 49 to 51 °C.

Molecule `O=C(c1cc2ccccc2[nH]1)N1CCCCC1` showed a melting point of 213 to 214 °C.

`CCOCCOc1ccc(CCNC(=O)/C=C/c2cccs2)cc1S(=O)(=O)NC(=S)NC`: the melting point amounted to 51 °C.

The molecule `CCCOC1(C=CCCCCC(=O)O)C=CC=CC1` (centres undefined) displayed a melting point of 52 to 53 °C.

In turn, `N#CC1(c2cccs2)CCC(=O)CC1` displayed a melting point of 118 to 119 °C.

For the molecule `O=C(O)c1cccc(OCC(=O)C23CC4CC(CC(C4)C2)C3)c1`, the melting point came to 156 °C.

In turn, `Cc1nc(-c2ccccc2)cc(-c2cccc([N+](=O)[O-])c2)c1NC(=O)NCCN(C)C` had a melting point of 159 to 161 °C.

Regarding `CCCCCCOc1ccc(-c2ncc(C#N)cn2)cc1`, the melting point lay in the range of 93.5 to 93.8 °C.

Turning to `O=S1(=O)c2ccccc2Oc2cc(O)ccc21`, the melting point fell in the range of 213 to 215 °C.

Consider `N#CN1CCC(=C2c3ccccc3Sc3cccnc32)CC1`, for which the melting point was in the range of 192 to 193 °C.

`CS(=O)(=O)c1ccc(C(CC2CCCC2)C(=O)Nc2nc3ccccc3[nH]2)cc1C#N` (centres undefined): the melting point is 148 to 152 °C.

As for `NC(=O)c1cnn2c1NCCC2c1cccc(C(F)(F)F)c1` (centres undefined), the melting point lay in the range of 152 to 154 °C.

`CCOC(=O)c1cn(Cc2ccc(OCc3csc(-c4ccccc4)n3)cc2)nc1-c1cccs1` showed a melting point of 94 to 95 °C.

For the molecule `CC(C)N1Cc2cncn2C(c2ccc(C#N)cc2)C1=O` (centres undefined), the melting point was 122 to 124 °C.

Consider `C[C@H](NC(=O)OC(C)(C)C)c1nc2c(C(F)(F)F)cccc2c(=O)o1`, for which the melting point was 174 °C.

`CC1(C)CC(C(O)CNc2nc(NCc3ccccc3)nc(NCC(O)C3CC(C)(C)NC(C)(C)C3)n2)CC(C)(C)N1` (centres undefined) gave a melting point of 88 °C.

`Cn1c(C(F)(F)F)cc(=O)n(-c2ccc(OCc3ccc(Cl)cc3)cc2F)c1=O` showed a melting point of 134 to 135 °C.

In turn, `COc1ccc2c3c(c(=O)oc2c1)CN(CCN1CC2CCC1CC2)CC3` registered a melting point of 112 to 113 °C.

The molecule `O=[N+]([O-])c1cc(Br)ccc1N1CCc2cc(Br)ccc21` returned a melting point of 150 to 152 °C.

For the molecule `C=CCSc1nc(=O)[nH]cc1F`, the melting point was 150 to 152 °C.

`CCn1cnc2c(N)nc(Cl)nc21` displayed a melting point of 258 to 262 °C.

As for `Cn1ccnc1N1CCN(c2ccc([N+](=O)[O-])cc2)CC1`, the melting point was in the range of 193 to 194 °C.

`Oc1cccc(C(O)CNCCCCn2cnc3ccccc32)c1` (centres undefined) registered a melting point of 58 to 62 °C.

As for `CC(C)(O)C[C@@H]1CO[C@](C)([C@H]2CC[C@H]3C(=O)CCC[C@@]32C)C1`, the melting point turned out to be 82 °C.

As to `Nc1c(NCCCOc2cccc(C3OCCO3)c2)c(=O)c1=O`, the melting point fell in the range of 209 to 210 °C.

The molecule `CCCCc1nc(SC)c(C(=O)O)n1Cc1ccc(-c2nc3ccccn3c2-c2nnn[nH]2)cc1` returned a melting point of 160 °C.

Molecule `CCS(=O)(=O)Nc1cc(-c2ncnc(C(C)C)c2Cl)c(F)cc1C#N` returned a melting point of 160 to 162 °C.

On to `COc1ccc(C(c2ccc(OC)cc2)c2cnccc2C(=O)NC23CC4CC(CC2C4)C3)cc1`, for which the melting point was 110 to 112 °C.

Consider `Nc1c(C(=O)c2cccc(S(N)(=O)=O)c2)[nH]c2cc(Cl)ccc12`, for which the melting point lay in the range of 125 to 127 °C.

`CC(O)c1cccc(-c2ccc3nc(-c4ccc(Cl)cc4)cn3c2)c1Cl` (centres undefined) returned a melting point of 170 to 172 °C.

For `CCc1nn(C2CCCC2)c2nc(COS(C)(=O)=O)nc(OS(C)(=O)=O)c12`, the melting point was in the range of 114 to 116 °C.

Regarding `OC[C@@H]1CN(C(c2ccccc2)(c2ccccc2)c2ccccc2)CCO1`, the melting point worked out at 142 °C.

Take `N#Cc1ccc(C2C(=O)N(Cc3ccccc3)Cc3cncn32)cc1` (centres undefined): the melting point fell in the range of 163 to 165 °C.

On to `CC(=O)Oc1cc(Cl)ccc1C(=O)NCCO[N+](=O)[O-]`, for which the melting point lay within 75 to 77 °C.

In the case of `CON=C(C(=O)O)C(=O)CBr`, the melting point lay within 76 to 78 °C.

Consider `CC(C)N1CCN(C(=O)COC2c3ccccc3C(=O)N2c2ccc3ccc(Cl)nc3n2)CC1` (centres undefined), for which the melting point worked out at 186 °C.

Turning to `CCSc1nc(NCc2ccccc2)c2ncn(C3OC(CO)C(O)C3O)c2n1` (centres undefined), the melting point was in the range of 172 to 174 °C.

Turning to `CON(c1ccc([N+](=O)[O-])cc1[N+](=O)[O-])S(=O)(=O)c1cccc(Cl)c1`, the melting point lay within 157 to 159 °C.

`CC(C)(C)c1cc(CCc2ccc(Cl)cc2NC(=O)NC2CCN(Cc3ccccc3)CC2)cc(C(C)(C)C)c1O`: the melting point lay within 155 to 156 °C.

`CC1(C(=O)C(N)=O)CC1(Cl)Cl` (centres undefined) yielded a melting point of 92 to 93 °C.

For the molecule `CC(=O)NCCCCNc1ccc(NCCN(C)C)c2c1C(=O)c1ccccc1C2=O`, the melting point lay within 160 to 162 °C.

In turn, `C=C1CC(C)(COc2cc(=O)oc3ccccc23)OC1=O` (centres undefined) came in with a melting point of 161 to 162 °C.

Molecule `CCCOc1ccccc1-c1nc2nc(NC(C)=O)ncc2c(=O)[nH]1` came in with a melting point of 273 to 274 °C.
